The values below come from patent US8933029B2, “Antimicrobial and anti-inflammatory peptides” (Carrus Capital Corporation, priority 2001, dated 2015).

Marks after values point to notes of the source that are not given here. Ends that are not written are not given here.

In one assay the test system is TPA-induced ear edema. Description: TPA ear edema model. Particulars: for Topical Dose (% change vs. vehicle) 0.1%: topical 0.1%; for Topical Dose (% change vs. vehicle) 0.1% / Topical Dose (% change vs. vehicle) 1.0% / Topical Dose (% change vs. vehicle) 5 0%: ear biopsy weight six hours after TPA; for Topical Dose (% change vs. vehicle) 1.0%: topical 1.0%.
Assay [1] relates to oxazolone contact hypersensitivity (ear inflammation). As to the kind of experiment: Oxazolone contact hypersensitivity model. The format is in vivo, CD-1 mice. Particulars: Dosage of 0.1%, applied to ear one hour after oxazolone challenge, ear punch weight after 24 h, 70% EtOH/30% propylene glycol vehicle. On the procedure: Briefly, a 3.0% (w/v) solution of oxazolone in acetone/corn oil (5:1) is applied topically to the skin on the shaved abdomens of mice of approximately the same weight and approximately the same age on day 0. […] Twenty-four hours later a dermal biopsy punch of the treated ear is taken and weighed.
CD-1 mice are treated with 3% oxazolone (Sigma) (30 mg/ml) in corn oil:acetone on a shaved abdomen. All solutions are sonicated for 7 minutes. Five days later, the mice are challenged with a 2% oxazolone (20 mg/ml) in acetone on the left ear, with the right ear being left untreated (control). One hour after challenge, the candidate peptide in a 70% EtOH/30% propylene glycol formulation (vehicle) was applied to the left ear, with the right ear being left untreated. After 24 h, 7 mm ear punches are taken from each ear of the mice. The ear punches are placed on a scale and the difference between the treated and untreated ears were compared. The percent inhibition of inflammation was calculated by comparing the mean of each treated group to the control group. The positive control is hydrocortisone (a known anti-inflammatory agent). Most of the indolicidin peptides inhibited inflammation as well as hydrocortisone.

The mark [2] stands for this setting: formulated in 50% ethanol/5 mM lactate buffer (*).
Where [3] appears, read: topical 5 0%, formulated in 50% ethanol/5 mM lactate buffer (*).
Where [4] appears, read: topical 5.0%, formulated in 95% ethanol.

As for `C[C@@H]1C[C@H]2[C@@H]3CCC4=CC(=O)C=C[C@]4(C)[C@@]3(F)[C@@H](O)C[C@]2(C)[C@@]1(O)C(=O)CO` [Dexamethasone, dexamethasone, reference compound], the “Systemic Dose (% change vs. vehicle) 5 mg/kg” value with TPA-induced ear edema (systemic 5 mg/kg) is recorded as over −80%. Besides, the “Topical Dose (% change vs. vehicle) 0.1%” value is on record as >−90* % with TPA-induced ear edema (setting [2]) and −92% with TPA-induced ear edema (formulated in 95% ethanol).
As for `CC[C@H]1OC(=O)[C@H](C)[C@@H](O[C@H]2C[C@@](C)(OC)[C@@H](O)[C@H](C)O2)[C@H](C)[C@@H](O[C@@H]2O[C@H](C)C[C@H](N(C)C)[C@H]2O)[C@](C)(O)C[C@@H](C)C(=O)[C@H](C)[C@@H](O)[C@]1(C)O` [Erythromycin, erythromycin, reference compound], in the assay with TPA-induced ear edema (setting [2]), the “Topical Dose (% change vs. vehicle) 0.1%” value is listed as −20* % and the “Topical Dose (% change vs. vehicle) 1.0%” value is −67* %. The “Topical Dose (% change vs. vehicle) 5 0%” value in the assay on TPA-induced ear edema (setting [3]) is reported as −87* %.
Regarding `C[C@]12CCC(=O)C=C1CC[C@@H]1[C@@H]2[C@@H](O)C[C@@]2(C)[C@H]1CC[C@]2(O)C(=O)CO` [Hydrocortisone, hydrocortisone, reference compound], the “% Inhibition of Inflammation” value in assay [1] amounted to 84.92%.
Turning to “A-ILTWPWWPWTTT-CN (not fully specified; N-terminal A, C-terminal nitrile/amide) [Peptide 11B24ACN]”, in the assay on TPA-induced ear edema (setting [4]), the “Topical Dose (% change vs. vehicle) 5 0%” value is −75%.
As for “F R F F K P K F R F P K F (FRFFKPKFRFPKF-{CN}) [Peptide 11J33CN]”, in the assay on TPA-induced ear edema (formulated in 95% ethanol), the “Topical Dose (% change vs. vehicle) 1.0%” value is given as −52%.
Turning to H-GWRFLKLAWRFLKL-OH [Peptide 11J97], in the assay on TPA-induced ear edema (formulated in 95% ethanol), the “Topical Dose (% change vs. vehicle) 0.1%” value is given as “+33%” and the “Topical Dose (% change vs. vehicle) 1.0%” value is −29%. The “Topical Dose (% change vs. vehicle) 5 0%” value in the assay with TPA-induced ear edema (setting [4]) was −49%.
For the molecule H-GWRFLKLAWRFLKLRR-OH [Peptide 11J136], in the assay on TPA-induced ear edema (formulated in 95% ethanol), the “Topical Dose (% change vs. vehicle) 0.1%” value was −12% and the “Topical Dose (% change vs. vehicle) 1.0%” value was −54%.
On the same counts, the results for “H-ILRWVWRIL-CN (H-ILRWVWRIL-{CN}) [Peptide 11J148CN]” are −33% and −74%.
The like results for “H-ILRWVWRILR-CN (H-ILRWVWRILR-{CN}; not fully specified) [Peptide 11J131CN]” were, in that order, −20% and −43%.
The like results for “H-L(Orn)FL(Orn)W AF(Orn)L W(Orn)L-CN [Peptide 11J84CN]” were, in that order, −14% and −35%.
“H-LRFLKW(Aib)WRFLKL-CN [Peptide 11J105CN]”: in the assay with TPA-induced ear edema (formulated in 95% ethanol), the “Topical Dose (% change vs. vehicle) 0.1%” value was −4% and the “Topical Dose (% change vs. vehicle) 1.0%” value is −51%.
Consider H-RILRW(Aib)WRILR-CN [Peptide 11J157CN], for which, in the assay on TPA-induced ear edema (formulated in 95% ethanol), the “Topical Dose (% change vs. vehicle) 0.1%” value is “+5%” and the “Topical Dose (% change vs. vehicle) 1.0%” value is −55%.
The like results for “H-RILRWVWRILR-CN (H-RILRWVWRILR-{CN}) [Peptide 11J115CN]” were, in that order, −1% and −57%.
For the molecule “I L E E W P W W P W E E E (ILEEWPWWPWEEE-{CN}) [Peptide 11B11CN]”, the “Topical Dose (% change vs. vehicle) 5 0%” value in the assay on TPA-induced ear edema (setting [3]) was −64* %.
“I L Q W P W W P W Q Q Q (ILQWPWWPWQQQ-{CN}) [Peptide 11B38CN]”: the “Topical Dose (% change vs. vehicle) 1.0%” value with TPA-induced ear edema (formulated in 95% ethanol) is −8%. The “Topical Dose (% change vs. vehicle) 5 0%” value with TPA-induced ear edema (setting [4]) is on record as −51%.
